Literature values, collected in patent EP0306335A1, “Analysis of ions present at low concentrations in solutions containing other ions” (Bradshaw, Jerald S., priority 1987, dated 1989).

Settings: ligand as solute in solution

log of the equilibrium constant (log K) for interaction with Sr²⁺: 8.73
SMILES: O=C(O)CN(CCN(CC(=O)O)CC(=O)O)CC(=O)O [EDTA, ethylenediaminetetraacetic acid]
